Data from article PMC10882719 (Frontiers in Neuroscience, 2024).
Like-named read-outs stand apart in the source and are kept apart here.

Legend:
Assay type in all cases: cell-based
168 GPCRs [1] = target: T1, 168 GPCRs (Homo sapiens, UniProt O43193); conditions: MLNR
T1 construct: host or cells: PathHunter cell lines

168 GPCRs [2] = target: T2, 168 GPCRs (Homo sapiens, UniProt P21452); conditions: TACR2
T2 construct: host or cells: PathHunter cell lines
T2 sequence (P21452 1-398): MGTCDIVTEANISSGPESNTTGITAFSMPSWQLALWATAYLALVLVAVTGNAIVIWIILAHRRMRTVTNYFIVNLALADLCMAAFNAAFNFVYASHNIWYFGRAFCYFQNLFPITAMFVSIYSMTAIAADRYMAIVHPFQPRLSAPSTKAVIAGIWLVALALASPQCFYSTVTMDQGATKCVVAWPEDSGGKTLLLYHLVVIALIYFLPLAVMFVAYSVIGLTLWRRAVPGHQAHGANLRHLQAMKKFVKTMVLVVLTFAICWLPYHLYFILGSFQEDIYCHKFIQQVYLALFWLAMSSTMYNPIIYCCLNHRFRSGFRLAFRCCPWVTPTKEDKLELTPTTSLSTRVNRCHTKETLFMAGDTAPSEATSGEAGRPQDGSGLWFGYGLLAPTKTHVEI

168 GPCRs [3] = target: T3, 168 GPCRs (Homo sapiens, UniProt P32245); conditions: MC4R
T3 construct: host or cells: PathHunter cell lines
T3 sequence (P32245 whole entry): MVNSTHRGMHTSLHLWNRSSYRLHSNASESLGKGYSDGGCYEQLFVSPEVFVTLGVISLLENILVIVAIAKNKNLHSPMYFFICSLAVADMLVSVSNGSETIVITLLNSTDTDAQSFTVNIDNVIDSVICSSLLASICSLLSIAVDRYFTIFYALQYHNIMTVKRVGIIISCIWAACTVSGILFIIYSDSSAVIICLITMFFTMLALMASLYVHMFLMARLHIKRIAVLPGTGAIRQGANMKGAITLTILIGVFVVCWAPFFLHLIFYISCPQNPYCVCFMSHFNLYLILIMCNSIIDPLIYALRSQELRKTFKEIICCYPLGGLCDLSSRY

168 GPCRs [4] = target: T4, 168 GPCRs (Homo sapiens, UniProt P33032); conditions: MC5R
T4 construct: host or cells: PathHunter cell lines
T4 sequence (P33032 whole entry): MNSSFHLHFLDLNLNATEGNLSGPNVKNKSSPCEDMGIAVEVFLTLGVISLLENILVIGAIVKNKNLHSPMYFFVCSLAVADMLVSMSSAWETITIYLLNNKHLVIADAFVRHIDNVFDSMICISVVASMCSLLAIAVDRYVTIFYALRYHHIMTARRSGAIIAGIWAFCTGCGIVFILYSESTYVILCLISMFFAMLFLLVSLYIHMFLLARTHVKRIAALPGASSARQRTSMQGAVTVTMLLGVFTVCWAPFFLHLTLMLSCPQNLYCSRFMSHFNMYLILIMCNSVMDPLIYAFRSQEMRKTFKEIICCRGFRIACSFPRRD

168 GPCRs [5] = target: T5, 168 GPCRs (Homo sapiens, UniProt P47211)
T5 construct: host or cells: PathHunter cell lines
T5 sequence (P47211 1-349): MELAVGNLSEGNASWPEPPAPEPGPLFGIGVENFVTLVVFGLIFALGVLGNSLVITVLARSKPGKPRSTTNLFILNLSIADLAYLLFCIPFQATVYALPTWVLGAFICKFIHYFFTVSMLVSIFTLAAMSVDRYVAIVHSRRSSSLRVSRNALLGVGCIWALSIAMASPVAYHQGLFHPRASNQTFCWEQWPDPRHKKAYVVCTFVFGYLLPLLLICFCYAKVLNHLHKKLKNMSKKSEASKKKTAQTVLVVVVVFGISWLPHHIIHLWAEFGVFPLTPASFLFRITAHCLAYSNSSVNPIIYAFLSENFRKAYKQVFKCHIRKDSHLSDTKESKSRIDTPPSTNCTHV

168 GPCRs [6] = target: T6, 168 GPCRs (Homo sapiens, UniProt Q13324)
T6 construct: host or cells: PathHunter cell lines
T6 sequence (Q13324 1-411): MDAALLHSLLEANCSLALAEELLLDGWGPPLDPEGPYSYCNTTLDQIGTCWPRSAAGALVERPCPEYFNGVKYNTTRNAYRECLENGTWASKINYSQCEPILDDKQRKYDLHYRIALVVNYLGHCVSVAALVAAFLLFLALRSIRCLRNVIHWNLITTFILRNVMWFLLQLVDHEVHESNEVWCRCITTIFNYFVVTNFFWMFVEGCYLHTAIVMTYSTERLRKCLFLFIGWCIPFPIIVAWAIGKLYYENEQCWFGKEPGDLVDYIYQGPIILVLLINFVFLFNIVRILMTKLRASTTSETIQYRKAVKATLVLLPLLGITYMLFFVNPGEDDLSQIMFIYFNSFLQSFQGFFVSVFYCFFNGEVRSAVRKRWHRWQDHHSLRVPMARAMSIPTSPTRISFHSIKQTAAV

168 GPCRs [7] = target: T7, 168 GPCRs (Homo sapiens, UniProt Q15722); conditions: LTB4R
T7 construct: host or cells: PathHunter cell lines
T7 sequence (Q15722 whole entry): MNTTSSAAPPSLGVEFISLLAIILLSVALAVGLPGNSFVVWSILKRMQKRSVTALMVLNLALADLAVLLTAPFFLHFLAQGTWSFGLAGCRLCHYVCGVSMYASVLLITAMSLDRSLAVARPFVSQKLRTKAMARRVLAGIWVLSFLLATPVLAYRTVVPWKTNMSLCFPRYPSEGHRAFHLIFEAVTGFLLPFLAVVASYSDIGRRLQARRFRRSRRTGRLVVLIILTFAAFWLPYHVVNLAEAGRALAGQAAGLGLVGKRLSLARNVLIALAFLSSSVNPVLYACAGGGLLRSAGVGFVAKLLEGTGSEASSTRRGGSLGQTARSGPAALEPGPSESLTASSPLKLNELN

168 GPCRs [8] = target: T8, 168 GPCRs (Homo sapiens, UniProt Q9HB89); conditions: NMU1R
T8 construct: host or cells: PathHunter cell lines
T8 sequence (Q9HB89 1-426): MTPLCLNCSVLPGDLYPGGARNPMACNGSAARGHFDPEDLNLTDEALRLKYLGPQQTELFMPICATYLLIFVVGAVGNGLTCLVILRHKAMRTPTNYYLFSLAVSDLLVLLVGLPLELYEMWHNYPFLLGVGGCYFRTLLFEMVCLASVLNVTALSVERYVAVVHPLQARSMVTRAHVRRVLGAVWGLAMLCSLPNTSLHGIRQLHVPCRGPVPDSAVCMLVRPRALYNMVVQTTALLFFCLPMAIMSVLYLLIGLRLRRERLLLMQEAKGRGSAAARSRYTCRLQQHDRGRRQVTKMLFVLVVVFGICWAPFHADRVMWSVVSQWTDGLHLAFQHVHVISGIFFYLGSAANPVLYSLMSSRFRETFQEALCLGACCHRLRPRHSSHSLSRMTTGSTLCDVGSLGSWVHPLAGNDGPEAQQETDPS

T1 sequence (O43193 whole entry): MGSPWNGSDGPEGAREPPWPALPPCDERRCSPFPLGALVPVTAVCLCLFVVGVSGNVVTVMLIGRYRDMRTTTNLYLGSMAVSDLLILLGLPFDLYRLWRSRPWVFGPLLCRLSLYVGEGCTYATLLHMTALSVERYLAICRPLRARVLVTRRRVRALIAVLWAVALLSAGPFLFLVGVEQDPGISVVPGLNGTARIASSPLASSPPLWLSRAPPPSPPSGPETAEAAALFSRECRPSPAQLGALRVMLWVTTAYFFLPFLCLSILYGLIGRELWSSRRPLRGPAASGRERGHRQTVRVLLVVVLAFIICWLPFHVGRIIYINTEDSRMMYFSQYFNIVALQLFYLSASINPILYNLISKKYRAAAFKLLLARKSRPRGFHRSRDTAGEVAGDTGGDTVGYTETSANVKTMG

Row | SMILES | % Agonist Activity (168 GPCRs [1]; 1 uM) [%] | % Antagonist Activity (168 GPCRs [1]; 1 uM) [%] | % Agonist Activity (168 GPCRs [1]; 10 uM) [%] | % Antagonist Activity (168 GPCRs [1]; 10 uM) [%] | % Agonist Activity (168 GPCRs [2]; Conc 1 uM) [%] | % Antagonist Activity (168 GPCRs [2]; Conc 1 uM) [%] | % Agonist Activity (168 GPCRs [2]; Conc 10 uM) [%] | % Antagonist Activity (168 GPCRs [2]; Conc 10 uM) [%] | % Agonist Activity (168 GPCRs [3]; 1 uM) [%] | % Antagonist Activity (168 GPCRs [3]; 1 uM) [%] | % Agonist Activity (168 GPCRs [3]; 10 uM) [%] | % Antagonist Activity (168 GPCRs [3]; 10 uM) [%] | % Agonist Activity (168 GPCRs [4]; 1 uM) [%] | % Antagonist Activity (168 GPCRs [4]; 1 uM) [%] | % Agonist Activity (168 GPCRs [4]; 10 uM) [%] | % Antagonist Activity (168 GPCRs [4]; 10 uM) [%] | % Agonist Activity (168 GPCRs [5]; GALR1, 1 uM) [%] | % Antagonist Activity (168 GPCRs [5]; GALR1, 1 uM) [%] | % Agonist Activity (168 GPCRs [5]; GALR1, 10 uM) [%] | % Antagonist Activity (168 GPCRs [5]; GALR1, 10 uM) [%] | further results
1 | CNC(C)C(=O)c1ccc2c(c1)OCO2 (stereo not shown) [methylone] | -1.5 | 15.6 | -1 | 12.3 | -1.9 | 10 | -3.3 | 9.1 | -1.4 | -5.2 | -1.1 | -14 | -7.9 | 1.7 | -8.9 | -6.3 | 0.8 | 7.1 | 0.6 | 6.8 | % Agonist Activity (168 GPCRs [6]; CRHR2, 1 uM): 0.9%; % Antagonist Activity (168 GPCRs [6]; CRHR2, 1 uM): -2%; % Agonist Activity (168 GPCRs [6]; CRHR2, 10 uM): 0.9%; % Antagonist Activity (168 GPCRs [6]; CRHR2, 10 uM): -0.3%; % Agonist Activity (168 GPCRs [7]; 1 uM): -0.3%; % Antagonist Activity (168 GPCRs [7]; 1 uM): 3.5%; % Agonist Activity (168 GPCRs [7]; 10 uM): -0.8%; % Antagonist Activity (168 GPCRs [7]; 10 uM): -5.2%; % Agonist Activity (168 GPCRs [8]; 1 uM): 1.3%; % Antagonist Activity (168 GPCRs [8]; 1 uM): -6.7%; % Agonist Activity (168 GPCRs [8]; 10 uM): 2%; % Antagonist Activity (168 GPCRs [8]; 10 uM): -9.3%
2 | CNC(C)Cc1ccc2c(c1)OCO2 (stereo not shown) [MDMA, 3,4-Methylenedioxy methamphetamine, reference compound] | -0.3 | 6.2 | -0.1 | 16.3 | 0.1 | 12.5 | -0.1 | 10.7 | 2.3 | -14.5 | 0.7 | -11.7 | 2.5 | -0.9 | 1 | 7.1 | 0.7 | -0.2 | 0.6 | -5.1 | % Agonist Activity (168 GPCRs [6]; CRHR2, 1 uM): -0.2%; % Antagonist Activity (168 GPCRs [6]; CRHR2, 1 uM): 4.3%; % Agonist Activity (168 GPCRs [6]; CRHR2, 10 uM): -0.1%; % Antagonist Activity (168 GPCRs [6]; CRHR2, 10 uM): 5.7%; % Agonist Activity (168 GPCRs [7]; 1 uM): 0.5%; % Antagonist Activity (168 GPCRs [7]; 1 uM): 8.9%; % Agonist Activity (168 GPCRs [7]; 10 uM): 0.5%; % Antagonist Activity (168 GPCRs [7]; 10 uM): 11.3%; % Agonist Activity (168 GPCRs [8]; 1 uM): 0%; % Antagonist Activity (168 GPCRs [8]; 1 uM): -3.7%; % Agonist Activity (168 GPCRs [8]; 10 uM): -0.1%; % Antagonist Activity (168 GPCRs [8]; 10 uM): 6.8%
